According to patent US20230356105A1, “TETRAAZADODECANE BASED CHELATING AGENTS FOR SEPARATION OF RARE EARTH ELEMENTS AND METHOD THEREFOR” (Ustav Organicke Chemie a Biochemie AV CR V.V.I., priority 2020, published 2023):
Values joined by “and” are separate entries in the source; they are usually repeats but may differ in a detail not shown here. Equal entries are not always repeated.

How the values were obtained:
Type in all cases: physicochemical
[1] = Separation of Ho/Er mixture using L1 with repeated dissolution of the precipitate with heat (Example 12); conditions: for Precipitate concentration [mM] Ho: dissolved to 200 μL
Description: The experiment was conducted according to Example 11), the difference being that instead of dissolving the precipitate in acid and neutralizing by addition of base, 200 μL of water were added to the precipitate and the suspension was stirred at 80° C. for 24 hours. Full dissolution of the precipitate was not achieved during this process, but a saturated solution was formed. After cooling to room temperature, the mixtures were processed as though the precipitation had occurred normally. The resulting absolute concentrations of both metals in the supernatants and precipitates, as well as calculated values of the separation factor Er/Ho according to the formula from Example 11) are summarized in Table 6. […] Repetition of the cycles in this experiment also led to a higher degree of enrichment for one of the rare-earth elements. The average separation factor value was 2.97.

[2] = Separation of Nd/Pr/Tb/Dy mixture by precipitation using L5 and acetate (Example 22); conditions: for solution after 20 hrs / solution after 2 days: acetate buffer pH=5.8; for solution after 20 hrs composition / solution after 2 days composition: percent molar
Description: A reaction mixture was prepared analogously to Example 21), with the differences being the use of sodium acetate buffer pH=5.8 in place of MOPS pH=7, an additional aliquot taken for analysis after 2 days, and the lack of ICP-OES analysis on the precipitated portions of the solution — that is, only the supernatants were analysed. Otherwise, the reaction was run analogously to Example 21). The percent molar composition of each is also provided, showing the improved selectivity in precipitation under these conditions, compared to Example 21).

[3] = Separation of Nd/Pr mixture by repeated precipitation using L5 and α-HIBA (Example 19); conditions: for Precipitate concentration [mM] Nd / precipitate concentration [mM] Pr: dissolved to 200 μL
Description: Stock solutions were pipetted into 4 mL glass vials to prepare reaction mixtures with concentrations as follows: • 1. 11 mM (1.1 eq) chelator L5 • 2. 5 mM (0.5 eq) PrCl3 • 3. 5 mM (0.5 eq) NdCl3 • 4. […] (4 eq) α-HIBA pH=6.5 • 5. 500 mM (50 eq) MOPS pH=7
Three aqueous reaction mixtures, numbered 1-3, were prepared with a total volume of 2 mL each and were treated identically throughout the process. A PTFE-coated magnetic stir bar was added to each and the reaction mixtures were stirred on a magnetic stirrer overnight at room temperature. After 18 hours, a 200 μL aliquot of the resulting suspension was taken from each vial and labelled as Al, A2, or A3, according to the reaction mixture number it was taken from. The aliquots were then centrifuged in a plastic Eppendorf centrifuge tube. The supernatant was carefully pipetted from each and transferred to a new set of tubes. To the precipitate was added 200 μL 1 M HCl and the mixture was stirred until full dissolution (about 1 hour at room temperature). The Nd and Pr content of these precipitate and supernatant samples was determined by ICP-OES. The remaining 1800 μL of reaction mixture were centrifuged in plastic Eppendorf centrifuge vials, and the supernatant was set aside. A sample of the supernatant was analysed on HPLC-MS and peak areas were compared to those of a standard 10 mM chelate solution; this allowed for calculation of the approximate concentration of chelate remaining in solution, and therefore of the quantity of chelate which had precipitated. The total volume for subsequent reactions was scaled according to this information, such that the concentration of chelate in solution prior to precipitation was 10 mM, even as the net quantity of chelate present was reduced. The precipitate, then, was dissolved by addition of 25 molar equivalents of 1 M HCl and transferred to a clean 4 mL glass vial with a PTFE-coated magnetic stir bar. 4 molar equivalents of a-HIBA were added to this vial, followed by 50 molar equivalents 3 M MOPS pH=7, the necessary calculated volume of water, and 25 molar equivalents 2 M NaOH to finish neutralising the reaction mixture. (The final reaction volume here was not so important as the final reaction concentrations.) The reaction mixtures were again stirred on a magnetic stirrer at room temperature overnight. After 18 hours, the resulting suspensions were treated in the same manner as before, with 200 μL aliquots (labelled as B1, B2, B3) taken for ICP-OES determination of the Nd and Pr content of the precipitate and supernatant. The remaining 1600 μL of reaction mixture were centrifuged, and the supernatant was analysed by HPLC-MS; the precipitate was treated as before to again yield a reaction solution with an initial concentration of 10 mM of chelate. The reaction mixtures were stirred overnight for the third repetition of processing, and 200 μL aliquots (C1, C2, C3) were again treated for ICP-OES determination of Nd and Pr content in the precipitate and supernatant after 18 hours. The resulting absolute concentrations of both metals in the supernatants and precipitates, as well as calculated values of the separation factor Nd/Pr according to the formula from Example 11), are summarized in Table 13. […] The average separation factor was 1.69.

## O=C(O)CN1CCN(CC(=O)O)CCN(Cc2ccccc2)CCN(CC(=O)O)CC1 [L1, 2,2′,2″-(10-benzyl-1,4,7,10-tetraazacyclododecane-1,4,7-triyl)triacetic Acid]
[1]; all samples
  average separation factor value Er/Ho: 2.97
[1]; group A, 1st cycle
  Separation factor Er/Ho: 2.89 and 2.84 and 3.04
  Supernatant concentration [mM] Ho: 0.36 mM and 0.33 mM
  Precipitate concentration [mM] Ho: 4.53 mM and 4.46 mM and 4.68 mM
[1]; group A, 1st cycle, mean
  Precipitate concentration [mM] Ho: 4.56 mM
  Supernatant concentration [mM] Ho: 0.35 mM
[1]; group B, 2nd cycle
  Separation factor Er/Ho: 2.69 and 2.94 and 3.69
  Precipitate concentration [mM] Ho: 3.89 mM and 3.98 mM and 3.64 mM
[1]; group B, 2nd cycle (water, 80° C., 24 hours)
  Supernatant concentration [mM] Ho: 0.27 mM and 0.32 mM and 0.25 mM
[1]; group B, 2nd cycle (water, 80° C., 24 hours), mean
  Supernatant concentration [mM] Ho: 0.28 mM
[1]; group B, 2nd cycle, mean
  Precipitate concentration [mM] Ho: 3.84 mM
[1]; group C, 3rd cycle
  Separation factor Er/Ho: 2.38 and 2.79 and 3.47
  Precipitate concentration [mM] Ho: 3.16 mM and 3.13 mM and 3.75 mM
[1]; group C, 3rd cycle (water, 80° C., 24 hours)
  Supernatant concentration [mM] Ho: 0.39 mM and 0.37 mM and 0.27 mM
[1]; group C, 3rd cycle (water, 80° C., 24 hours), mean
  Supernatant concentration [mM] Ho: 0.34 mM
[1]; group C, 3rd cycle, mean
  Precipitate concentration [mM] Ho: 3.35 mM

## O=C(O)CN1CCN(CC(=O)O)CCN(Cc2cccc3ccccc23)CCN(CC(=O)O)CC1 [L5, 2,2′,2″-(10-(naphthalene-1-ylmethyl)-1,4,7,10-tetraazacyklododekane-1,4,7-triyl)triacetic acid]
[2]; Ln=Dy
  solution after 20 hrs: 5.41 mM
  solution after 2 days: 5.00 mM
  solution after 20 hrs composition: 16.4%
  solution after 2 days composition: 28.1%
[2]; Ln=Nd
  solution after 20 hrs: 17.01 mM
  solution after 2 days: 6.42 mM
  solution after 20 hrs composition: 51.5%
  solution after 2 days composition: 36.1%
[2]; Ln=Pr
  solution after 20 hrs: 4.78 mM
  solution after 2 days: 1.57 mM
  solution after 20 hrs composition: 14.5%
  solution after 2 days composition: 8.8%
[2]; Ln=Tb
  solution after 20 hrs: 5.84 mM
  solution after 2 days: 4.77 mM
  solution after 20 hrs composition: 17.7%
  solution after 2 days composition: 26.9%
[3]; A, 1st precipitation
  Supernatant concentration [mM] Nd: 1.16 mM and 1.49 mM
  Precipitate concentration [mM] Nd: 3.34 mM and 3.17 mM and 3.59 mM
  precipitate concentration [mM] Pr: 3.57 mM and 3.50 mM and 3.83 mM
[3]; A, 1st precipitation, 20 mM (4 eq) α-HIBA
  supernatant concentration [mM] Pr: 0.73 mM and 1.00 mM and 0.72 mM
[3]; A, 1st precipitation, 20 mM (4 eq) α-HIBA, mean
  supernatant concentration [mM] Pr: 0.82 mM
[3]; A, 1st precipitation, mean
  Precipitate concentration [mM] Nd: 3.37 mM
  precipitate concentration [mM] Pr: 3.63 mM
  Supernatant concentration [mM] Nd: 1.27 mM
[3]; B, 2nd precipitation
  Supernatant concentration [mM] Nd: 0.94 mM and 0.79 mM and 0.88 mM
  supernatant concentration [mM] Pr: 0.63 mM and 0.56 mM and 0.58 mM
  Precipitate concentration [mM] Nd: 3.81 mM and 3.53 mM and 3.91 mM
  precipitate concentration [mM] Pr: 4.45 mM and 4.22 mM and 4.52 mM
[3]; B, 2nd precipitation, mean
  Precipitate concentration [mM] Nd: 3.75 mM
  precipitate concentration [mM] Pr: 4.40 mM
  Supernatant concentration [mM] Nd: 0.87 mM
  supernatant concentration [mM] Pr: 0.59 mM
[3]; C, 3rd precipitation
  Supernatant concentration [mM] Nd: 0.87 mM and 0.93 mM and 0.75 mM
  supernatant concentration [mM] Pr: 0.66 mM and 0.74 mM and 0.56 mM
  Precipitate concentration [mM] Nd: 3.70 mM and 3.29 mM and 4.06 mM
  precipitate concentration [mM] Pr: 4.70 mM and 4.31 mM and 4.98 mM
[3]; C, 3rd precipitation, mean
  Precipitate concentration [mM] Nd: 3.68 mM
  precipitate concentration [mM] Pr: 4.66 mM
  Supernatant concentration [mM] Nd: 0.85 mM
  supernatant concentration [mM] Pr: 0.65 mM
